Laboratory results published in the NIST ThermoML archive (doi:10.1016/j.fluid.2019.05.015).

Assay: refractive index (Na D-line) (dimensionless); xn = mol fraction of the nth substance listed
Conditions: 100 kPa, Liquid, Standard Abbe refractometry

O=C1OCCO1 [ethylene carbonate] + O
Conditions | refractive index
298.2 K, x2 = 0.0993 | 1.4205
298.2 K, x2 = 0.1962 | 1.4175
298.2 K, x2 = 0.2943 | 1.414
298.2 K, x2 = 0.3321 | 1.4125
298.2 K, x2 = 0.4172 | 1.4085
298.2 K, x2 = 0.4758 | 1.4055
298.2 K, x2 = 0.5337 | 1.401
298.2 K, x2 = 0.5766 | 1.399
298.2 K, x2 = 0.6159 | 1.397
298.2 K, x2 = 0.6887 | 1.391
298.2 K, x2 = 0.7258 | 1.386
298.2 K, x2 = 0.7789 | 1.3805
298.2 K, x2 = 0.8239 | 1.375
298.2 K, x2 = 0.881 | 1.364
298.2 K, x2 = 0.9186 | 1.356
298.2 K, x2 = 0.9593 | 1.345
298.2 K, x2 = 0.9778 | 1.34
308.2 K, x2 = 0.0993 | 1.417
308.2 K, x2 = 0.1962 | 1.4145
308.2 K, x2 = 0.2943 | 1.411
308.2 K, x2 = 0.3321 | 1.409
308.2 K, x2 = 0.4172 | 1.4055
308.2 K, x2 = 0.4739 | 1.4015
308.2 K, x2 = 0.5337 | 1.3985
308.2 K, x2 = 0.5753 | 1.3955
308.2 K, x2 = 0.6159 | 1.3925
308.2 K, x2 = 0.688 | 1.3875
308.2 K, x2 = 0.725 | 1.381
308.2 K, x2 = 0.7785 | 1.3765
308.2 K, x2 = 0.8234 | 1.3705
308.2 K, x2 = 0.8807 | 1.361
308.2 K, x2 = 0.9183 | 1.354
308.2 K, x2 = 0.9591 | 1.3435
308.2 K, x2 = 0.9777 | 1.3385
318.2 K, x2 = 0.0993 | 1.414
318.2 K, x2 = 0.1962 | 1.4105
318.2 K, x2 = 0.2943 | 1.4075
318.2 K, x2 = 0.3321 | 1.406
318.2 K, x2 = 0.4172 | 1.4015
318.2 K, x2 = 0.473 | 1.3985
318.2 K, x2 = 0.5315 | 1.395
318.2 K, x2 = 0.5744 | 1.3925
318.2 K, x2 = 0.6147 | 1.3895
318.2 K, x2 = 0.6871 | 1.384
318.2 K, x2 = 0.7243 | 1.3785
318.2 K, x2 = 0.7779 | 1.374
318.2 K, x2 = 0.8228 | 1.368
318.2 K, x2 = 0.8803 | 1.3585
318.2 K, x2 = 0.9181 | 1.3505
318.2 K, x2 = 0.959 | 1.3425
318.2 K, x2 = 0.9777 | 1.337

O=C1OCCO1 [ethylene carbonate] + CCn1cc[n+](C)c1.[Br-]
refractive index
Conditions | x1 = 0.106 | x1 = 0.222 | x1 = 0.2945 | x1 = 0.3671 | x1 = 0.4655 | x1 = 0.6002 | x1 = 0.7142 | x1 = 0.7981 | x1 = 0.8946
298.2 K | 1.5505 | 1.5405 | 1.531 | 1.5245 | 1.5105 | 1.498 | 1.4835 | 1.4695 | 1.45
308.2 K | 1.548 | 1.5385 | 1.529 | 1.5235 | 1.5085 | 1.4955 | 1.481 | 1.466 | 1.445
318.2 K | 1.5455 | 1.5345 | 1.5275 | 1.52 | 1.5065 | 1.493 | 1.4775 | 1.4635 | 1.4425
